Measured values taken from ChEMBL document CHEMBL1240508, “Design and synthesis of Hsp90 inhibitors: exploring the SAR of Sansalvamide A derivatives” (Bioorg Med Chem, 2010).
pIC50: −log10 of the molar value. Converted amounts (≈) assume the structure as drawn. The source made the active and inactive calls. The rule behind the calls is not given here. Non-standard residues stand in square brackets, D forms with d. Residues, ends and D or L forms follow the SMILES beside them. *: point of attachment. dNMeF = CN[C@H](Cc1ccccc1)C(=O)O; Cha = N[C@@H](CC1CCCCC1)C(=O)O; NMeK = CN[C@@H](CCCCN)C(=O)O; Boc = CC(C)(C)OC(=O)*; Bn = c1ccc(C*)cc1

How the values were obtained:
[1] = Solubility of the compound; format: physicochemical
[2] = Chemical stability of the compound assessed as half life; format: physicochemical
[3] = Efflux ratio of permeability in human Caco-2 cells; format: ADME, cell-based
HCT-116 [4] = test: Cytotoxicity against human HCT116 cells after 72 hrs by [3H]thymidine incorporation assay
HCT-116 [5] = test: Cytotoxicity against human HCT116 cells at 10 uM after 72 hrs by [3H]thymidine incorporation assay; details: read-out: GI
[6] = Inhibition of Hsp90 assessed as Her2 interaction at up to 11 uM by Western blotting
[7] = Inhibition of Hsp90 assessed as IP6K2 interaction at up to 11 uM by Western blotting

Row | Compound | inhibition of growth at 10 µM (HCT-116 [5]) | further results
1 | CC(C)C[C@@H]1NC(=O)[C@@H]([C@H](OCc2ccccc2)c2ccccc2)NC(=O)[C@@H](Cc2ccccc2)NC(=O)[C@@H](CC(C)C)NC(=O)[C@H](C(C)C)N(C)C1=O | 94% | solubility [1]: 7 µM (≈ 5.18 µg/mL); half-life [2]: > 2.87 h; efflux ratio [3]: 3; pIC50 (HCT-116 [4]): 5.49
2 | CC(C)C[C@@H]1NC(=O)[C@H](CC(C)C)NC(=O)[C@H](C(C)C)NC(=O)[C@H](CC(C)C)NC(=O)[C@@H](Cc2ccccc2)NC1=O | 26% | 
3 | CC(C)[C@H]1NC(=O)[C@@H](Cc2ccccc2)N(C)C(=O)[C@H](Cc2ccccc2)NC(=O)[C@H](CO)NC(=O)[C@H](CC2CCCCC2)NC1=O | 18% | 
4 | CC(C)C[C@@H]1NC(=O)[C@H](Cc2ccccc2)NC(=O)[C@H](CCCCN)N(C)C(=O)[C@H](CC(C)C)NC(=O)[C@H](C(C)C)NC1=O (cyclo(FLVL[NMeK])) | 0% | 
5 | CC(C)C[C@@H]1NC(=O)[C@H](CC(C)C)NC(=O)[C@H](C(C)C)NC(=O)[C@@H](Cc2ccccc2)NC(=O)[C@H](Cc2ccccc2)NC1=O | 21% | 
6 | CC(C)C[C@@H]1NC(=O)[C@H](Cc2ccccc2)NC(=O)[C@H](CCCCNC(=O)OC(C)(C)C)N(C)C(=O)[C@H](CC(C)C)NC(=O)[C@H](C(C)C)NC1=O (cyclo(FLVL[NMeK](Boc))) | 58% | 
7 | CC(C)C[C@@H]1NC(=O)[C@H]([C@@H](OCc2ccccc2)c2ccccc2)NC(=O)[C@@H](Cc2ccccc2)NC(=O)[C@@H](CC(C)C)NC(=O)[C@H](C(C)C)N(C)C1=O | 64% | pIC50 (HCT-116 [4]): 5.24
8 | CC(C)C[C@@H]1NC(=O)[C@H](CC(C)C)NC(=O)[C@@H](C(C)C)NC(=O)[C@@H](Cc2ccccc2)NC(=O)[C@H](Cc2ccccc2)NC1=O | 4% | 
9 | CC(C)C[C@@H]1NC(=O)[C@H](CC(C)C)NC(=O)[C@H](C(C)C)NC(=O)[C@H](CC(C)C)NC(=O)[C@@H](Cc2ccc(O)cc2)NC1=O | 50% | 
10 | CC(C)C[C@@H]1NC(=O)[C@H](Cc2ccccc2)NC(=O)[C@@H](CC(C)C)NC(=O)[C@@H](CC(C)C)NC(=O)[C@H](C(C)C)NC1=O | 20% | 
11 | CC(C)C[C@@H]1NC(=O)[C@H](CC(C)C)NC(=O)[C@H](C(C)C)NC(=O)[C@H](CC(C)C)NC(=O)[C@H](Cc2ccccc2)NC1=O |  | pIC50 (HCT-116 [4]): 4.71
12 | CC(C)C[C@@H]1NC(=O)[C@H](Cc2ccccc2)NC(=O)[C@H](CCCCNC(=O)OC(C)(C)C)NC(=O)[C@H](CC(C)C)NC(=O)[C@H](C(C)C)NC1=O | 0% | 
13 | CC(C)C[C@@H]1NC(=O)[C@H](Cc2ccccc2)NC(=O)[C@H](CCCCNC(=O)OC(C)(C)C)NC(=O)[C@H](CC(C)C)NC(=O)[C@@H](C(C)C)NC1=O | 9% | 
14 | CC(C)C[C@@H]1NC(=O)[C@@H](Cc2ccccc2)NC(=O)[C@@H](Cc2ccccc2)NC(=O)[C@@H](CC(C)C)N(C)C(=O)[C@H](C(C)C)N(C)C1=O | 15% | 
15 | CC(C)C[C@@H]1NC(=O)[C@@H]([C@@H](OCc2ccccc2)c2ccccc2)NC(=O)[C@@H](Cc2ccccc2)NC(=O)[C@@H](CC(C)C)NC(=O)[C@H](C(C)C)N(C)C1=O (mixture of isomers) | 63% | pIC50 (HCT-116 [4]): 5.05
16 | CC(C)C[C@@H]1NC(=O)[C@H](CC(C)C)NC(=O)[C@@H](C(C)C)NC(=O)[C@H](CC(C)C)NC(=O)[C@H](Cc2ccccc2)NC1=O | 8% | 
17 | CC(C)C[C@@H]1NC(=O)[C@H](C(C)C)NC(=O)[C@@H](Cc2ccccc2)N(C)C(=O)[C@H](Cc2ccccc2)NC(=O)[C@@H](CC(C)C)N(C)C1=O | 47% | 

Row | Compound | inhibition of growth at 10 µM (HCT-116 [5]) | further results
18 | CC(C)C[C@@H]1NC(=O)[C@H](CC(C)C)N(C)C(=O)[C@H](C(C)C)NC(=O)[C@@H](CC(C)C)NC(=O)[C@H](Cc2ccccc2)NC1=O | 3% | 
19 | CC(C)[C@H]1NC(=O)[C@@H](Cc2ccccc2)N(C)C(=O)[C@H](Cc2ccccc2)NC(=O)[C@H](COCc2ccccc2)NC(=O)[C@H](CC2CCCCC2)NC1=O (cyclo([Cha]S(Bn)F[dNMeF][dV])) | 93% | solubility [1]: < 5 µM; inhibition [6]: Active; inhibition [7]: Active; pIC50 (HCT-116 [4]): ≥ 5.72
20 | CC(C)C[C@@H]1NC(=O)[C@H](Cc2ccccc2)NC(=O)[C@H](CCCCN)NC(=O)[C@H](CC(C)C)NC(=O)[C@H](C(C)C)NC1=O (cyclo(FLVLK)) | 0% | 
21 | CC(C)C[C@@H]1NC(=O)[C@H](Cc2ccccc2)NC(=O)[C@H](CCCCN)NC(=O)[C@H](CC(C)C)NC(=O)[C@@H](C(C)C)NC1=O (cyclo(FL[dV]LK)) | 0% | 
22 | CC(C)C[C@@H]1NC(=O)[C@H](C(C)C)NC(=O)[C@@H](CC(C)C)NC(=O)[C@@H](Cc2ccccc2)NC(=O)[C@H](CC(C)C)N(C)C1=O | 15% | 
23 | CC(C)C[C@@H]1NC(=O)[C@H](CC(C)C)NC(=O)[C@H](C(C)C)NC(=O)[C@@H](CC(C)C)NC(=O)[C@@H](Cc2ccccc2)NC1=O | 14% | 
24 | CC(C)C[C@@H]1NC(=O)[C@@H](C(C)C)NC(=O)[C@@H](CC(C)C)NC(=O)[C@H](Cc2ccccc2)N(C)C(=O)[C@H](CC(C)C)NC1=O | 30% | 
25 | CC(C)C[C@@H]1NC(=O)[C@@H](Cc2ccccc2)NC(=O)[C@@H](CC(C)C)NC(=O)[C@H](CC(C)C)N(C)C(=O)[C@H](C(C)C)NC1=O | 18% | 
26 | CC(C)C[C@@H]1NC(=O)[C@H](Cc2ccccc2)NC(=O)[C@@H](CC(C)C)N(C)C(=O)[C@H](CC(C)C)NC(=O)[C@H](C(C)C)NC1=O | 32% | 
27 | CC(C)C[C@@H]1NC(=O)[C@H](Cc2ccccc2)NC(=O)[C@@H](Cc2ccccc2)NC(=O)[C@@H](CCCCNC(=O)OCc2ccccc2)NC(=O)[C@H](C(C)C)N(C)C1=O | 36% | 
28 | CC(C)C[C@@H]1NC(=O)[C@H](CC(C)C)NC(=O)[C@H](C(C)C)NC(=O)[C@H](CC(C)C)NC(=O)[C@@H](Cc2c[nH]c3ccccc23)NC1=O | 30% | 
29 | CC(C)C[C@@H]1NC(=O)[C@@H](CC(C)C)NC(=O)[C@@H](C(C)C)NC(=O)[C@H](CC(C)C)N(C)C(=O)[C@H](Cc2ccccc2)NC1=O | 30% | 
30 | CC(C)C[C@@H]1NC(=O)[C@H](CC(C)C)NC(=O)[C@H](C(C)C)NC(=O)[C@@H](Cc2ccccc2)N(C)C(=O)[C@H](Cc2ccccc2)NC1=O | 99% | 
31 | CC(C)C[C@@H]1NC(=O)[C@H](Cc2ccccc2)NC(=O)[C@@H](Cc2ccccc2)NC(=O)[C@@H](CC(C)C)NC(=O)[C@H](C(C)C)NC1=O | 28% | 
32 | CC(C)C[C@@H]1NC(=O)[C@H](C(C)C)NC(=O)[C@@H](Cc2ccccc2)N(C)C(=O)[C@H](Cc2ccccc2)NC(=O)[C@H](CCCCN)NC1=O (cyclo(F[dNMeF]VLK)) | 0% | 
33 | CC(C)C[C@@H]1NC(=O)[C@H](Cc2ccccc2)NC(=O)[C@H](CC(C)C)N(C)C(=O)[C@H](CC(C)C)NC(=O)[C@H](C(C)C)NC1=O | 35% | 
34 | CC(C)[C@H]1NC(=O)[C@@H](Cc2ccccc2)NC(=O)[C@H](Cc2ccccc2)NC(=O)[C@H](COCc2ccccc2)NC(=O)[C@H](CC2CCCCC2)NC1=O (cyclo([Cha]S(Bn)F[dF][dV])) | 10% | inhibition [6]: inactive; inhibition [7]: inactive
